# Read-outs that look alike come from different tables or passages of the source.
# Columns and labels:
# 22RV1 cells = assay: MTT cell growth inhibition assay, 22RV1; type: cell-based; conditions: for IC50: Homo sapiens, read-out: IC50 (22RV1 cell growth)
# Experimental: In brief, 22RV1 cells were seeded at a density of 1×10^4 cells/well into 96-well plates and treated with each drug at 6 concentrations ranging from 5 nM to 200 nM for 72 hours. Afterwards, an MTT dye solution and a solubilization solution/stop mix were added according to an MTT assay method, followed by reading absorbance at 570 nm to analyze cell viability and IC50.
# [1] = system: AR transcriptional activity; assay: MMTV-LUC luciferase reporter assay in 22RV1 cells, DHT+ (screening and IC50); type: cell-based; conditions: for activity at 0.1 µM / activity at 1 µM / activity at 10 µM / IC50: Homo sapiens; for activity at 0.1 µM / activity at 1 µM / activity at 10 µM / MMTV-LUC activity (%) DHT+: with DHT, control = 100; for IC50: AR transcriptional activity
# Experimental: (§2) A library of antimalarial agents was screened using a luciferase reporter assay to measure changes in AR/AR-V7 transcriptional activity.
# (§3) Screening was made primarily with 10 μM of each drug.
# [2] = system: hormone-dependent AR transcriptional activity; assay: MMTV-LUC reporter assay in LNCaP cells, hormone-dependent AR transcriptional activity; type: cell-based; conditions: Homo sapiens, read-out: IC50 (nM) DHT+
# [3] = system: AR-V7 transcriptional activity; assay: MMTV-LUC luciferase reporter assay in 22RV1 cells, DHT− (screening and IC50); type: cell-based; conditions: for activity at 0.1 µM / activity at 1 µM / activity at 10 µM / IC50: Homo sapiens; for activity at 0.1 µM / activity at 1 µM / activity at 10 µM / IC50 / MMTV-LUC activity (%) DHT−: 22RV1 cells; for activity at 0.1 µM / activity at 1 µM / activity at 10 µM / MMTV-LUC activity (%) DHT−: no DHT, control = 100; for IC50: AR-V7 transcriptional activity; for potency as inhibitor of AR/AR-V7 transcriptional activity compared with ailanthone: in both CRPC 22RV1 cells and androgen-dependent LNCaP cells
# Experimental: as §2, §3
# [4] = system: 22RV1 xenograft mouse models; type: in vivo; design: Tumor (ave): unit not given here; conditions: 2 mg/kg every 2 days oral
# Experimental: In mouse models xenografted with the castration-resistant prostate cancer (CRPC) cell line 22RV1, bruceantin was analyzed for inhibitory effect on tumor growth. To this end, bruceantin was orally administered at a dose of 2 mg/kg/every 2 days to 22RV1 xenograft mouse models during which inhibition effects on tumor growth and body weights were monitored. The results are depicted in FIGS. 9a and 9b and Tables 11 and 12.
# [5] = mouse, in vivo; for AST/ALT (ave): sc
# Experimental: FIG. 8b is a graph showing changes in blood AST/ALT ratio with doses of bruceantin subcutaneously injected to mice according to an embodiment of the present disclosure.
# (§1) While being subcutaneously injected with bruceantin at a dose of 1 mg/kg/every 3 days, 22RV1-xenografted mouse models were monitored for inhibitory effects on tumor growth and body weights.
# [6] = system: 22RV1 metastasis mouse models; type: in vivo; conditions: 2 mg/kg every 2 days oral
# Experimental: In order construct metastasis mouse models with the castration-resistant prostate cancer cell line 22RV1, the cells were subcutaneously injected into nude mice and the tumors was grown. Then, the tumors were harvested and injected into the left cardiac ventricle of nude mice to construct metastasis mouse models (see FIG. 13).
# In the metastasis mouse models using the castration-resistant prostate cancer cell line 22RV1, bruceantin was analyzed for inhibitory effect on tumor metastasis and growth. In brief, the metastasis mice were monitored for inhibitory effects on tumor metastasis and growth and body weight while bruceantin was orally administered at a dose of 2 mg/kg/every 2 days thereto. The results are depicted in FIGS. 14a and 14b and Table 14.
# [7] = system: 22RV1-xenografted mouse models; type: in vivo; design: Tumor (ave): unit not given here; conditions: for Tumor (ave): 1 mg/kg every 3 days subcutaneous
# Experimental: as §1
# [8] = Hematobiochemical toxicity assay in 22RV1 xenograft mice; type: in vivo, mouse; conditions: for ALT (ave) / AST (ave) / AST/ALT (ave) / CK (ave) / Cr (ave) / LDH (ave): mouse, in vivo
# Experimental: Briefly, in order to analyze toxicity of bruceantin in vivo, bloods from 22RV1 xenograft […] 3 days […] and oral administration at a dose of 2 mg/kg/every 2 days (p.o.), and the results are depicted in FIG. 10 and summarized in Table 13. • ALT: Alanine transaminase • AST: Aspartate transaminase • LDH: Lactate dehydrogenase • CR: Creatinine • CPK: Creatine phosphokinase
# [9] = system: RWPE-1, DU145, PC3, LNCaP, C4-2B, C4-2B-MDVR and 22RV1 cells; assay: MTT cell growth assay on normal prostate and prostate cancer cell lines; type: cell-based; conditions: 1 nM to 5 nM, 72 hours; versus normal prostate cells and AR-negative prostate cancer cells
# Experimental: Bruceantin was analyzed for inhibitory activity against cell growth of normal prostate cells (RWPE-1), AR-negative prostate cancer cells (DU145, PC3), AR-positive hormone-dependent prostate cancer cells (LNCaP, C4-2B), AR- & AR-V7-positive castration-resistant prostate cancer cells (C4-2B-MDVR and 22RV1) by an MTT assay method.
# In brief, the cell lines were each seeded at a density of 1×10^4 cells/well into 96-well plates and incubated with each of the drugs at three concentrations ranging from 1 nM to 5 nM for 72 hours. Afterwards, an MTT dye solution and a solubilization solution/stop mix were added according to an MTT assay method, followed by reading absorbance at 570 nm to analyze cell viability. The data are depicted in FIG. 6.
# [10] = mouse, in vivo
# Experimental: Anatomical and histological toxicity assays were performed on livers, kidneys and spleens from the mice subcutaneously injected with bruceantin. In order to analyze in vivo toxicity of bruceantin, liver, kidney, and spleen tissues from 22RV1 xenograft mouse models were analyzed after subcutaneous injection at a dose of 1 mg/kg/every 3 days, and the results are depicted in FIGS. 11a and 11b.
# Anatomical and histological toxicity assays were performed on livers, kidneys and spleens from the mice to which bruceantin had been orally administered. In order to analyze in vivo toxicity of bruceantin, liver, kidney, and spleen tissues from 22RV1 xenograft mouse models were analyzed after oral administration at a dose of 2 mg/kg/every 2 days, and the results are depicted in FIGS. 12a and 12d.
smiles,measurement,setting,value
"COC(=O)[C@@]12OC[C@]34[C@H]([C@@H](O)[C@@H]1O)[C@@]1(C)CC(=O)C(O)=C(C)[C@@H]1C[C@H]3OC(=O)[C@H](OC(=O)CC(C)C)[C@@H]24 [Bruceine A, bruceine A]",IC50,"22RV1 cells; 22Rv1, 72 h",16.5 nM
same,activity at 0.1 µM,[1]; 0.1 uM,5.7 ± 1%
same,activity at 1 µM,[1]; 1 uM,3.6 ± 0.2%
same,activity at 10 µM,[1]; 10 uM,2.8 ± 0.2%
same,IC50,[1],9.45 nM
same,IC50,[2]; LNCaP,15 nM
same,activity at 0.1 µM,[3]; 0.1 uM,19.5 ± 20.7%
same,activity at 1 µM,[3]; 1 uM,13.5 ± 1.7%
same,activity at 10 µM,[3]; 10 uM,11 ± 2.5%
same,IC50,[3],14.3 nM
same,potency as inhibitor of AR/AR-V7 transcriptional activity compared with ailanthone,[3],more potent inhibitors against AR/AR-V7 transcriptional activity
"COC(=O)[C@@]12OC[C@]34[C@H]([C@@H](O)[C@@H]1O)[C@@]1(C)CC(=O)C(O)=C(C)[C@@H]1C[C@H]3OC(=O)[C@H](OC(=O)/C=C(\C)C(C)C)[C@@H]24 [Bruceantin, bruceantin]",fold more potent inhibitory activity against CRPC cell growth than ailanthone,"22RV1 cells; 22RV1 cells, versus ailanthone",16 fold
same,IC50,"22RV1 cells; 22RV1 cells, MTT, 72 hours",2.07 nM
same,inhibition of tumor growth,[4],effectively inhibit tumor growth
same,Tumor (ave),[4]; Day 0,73.0453
same,Tumor (ave),[4]; Day 3,89.5358
same,Tumor (ave),[4]; Day 5,75.35
same,Tumor (ave),[4]; Day 7,88.811
same,Tumor (ave),[4]; Day 9,157.6571
same,Tumor (ave),[4]; Day 11,189.9515
same,Tumor (ave),[4]; Day 13,256.5573
same,Tumor (ave),[4]; Day 15,348.6721
same,Tumor (ave),[4]; Day 17,485.1394
same,Tumor (ave),[4]; Day 19,567.0807
same,Tumor (ave),[4]; Day 21,616.549
same,effect on weights of the mice,[5]; 1 mg/kg,no effect on weights of the mice
same,hepatotoxicity,[5]; 1 mg/kg,nor to cause hepatotoxicity
same,AST/ALT (ave),[5]; 0.5 mg/kg,2.5
same,AST/ALT (ave),[5]; 1 mg/kg,3.3
same,inhibitory effect on tumor metastasis and growth,[6],inhibit metastatic tumor growth and the number of metastases
same,Tumor (ave),[7]; Day 0,57.5
same,Tumor (ave),[7]; Day 3,81.7
same,Tumor (ave),[7]; Day 6,161.6
same,Tumor (ave),[7]; Day 9,250.2
same,Tumor (ave),[7]; Day 12,428.0
same,Tumor (ave),[7]; Day 15,676.3
same,Tumor (ave),[7]; Day 18,895.7
same,Tumor (ave),[7]; Day 21,938.5
same,Tumor (ave),[7]; Day 24,1005.7
same,inhibition of in vivo tumor growth of CRPC cells,"[7]; nude mice, 22RV1 cells, dose of 1 mg/kg",effectively inhibit in vivo tumor growth
same,toxicity on blood indices,"[8]; compared to the control vehicle, both routes",no toxicity on blood indices
same,ALT (ave),"[8]; ip, 1 mg/kg",61.2
same,AST (ave),"[8]; ip, 1 mg/kg",351
same,AST/ALT (ave),"[8]; ip, 1 mg/kg",6.409
same,CK (ave),"[8]; ip, 1 mg/kg",180
same,Cr (ave),"[8]; ip, 1 mg/kg",0.156
same,LDH (ave),"[8]; ip, 1 mg/kg",1098.6
same,ALT (ave),"[8]; po, 2 mg/kg",72
same,AST (ave),"[8]; po, 2 mg/kg",263.4
same,AST/ALT (ave),"[8]; po, 2 mg/kg",3.658
same,CK (ave),"[8]; po, 2 mg/kg",247.5
same,Cr (ave),"[8]; po, 2 mg/kg",0.138
same,LDH (ave),"[8]; po, 2 mg/kg",1456.8
same,activity at 0.1 µM,[1]; 0.1 uM,4 ± 0.5%
same,activity at 1 µM,[1]; 1 uM,4.4 ± 0.3%
same,activity at 10 µM,[1]; 10 uM,3.9 ± 0.4%
same,IC50,[1],2.08 nM
same,specificity of cell growth inhibition,[9],inhibitory activity specifically against AR- and AR-V7-positive prostate cancer cells
same,IC50,[2]; LNCaP,2.05 nM
same,"morphological and histological changes in liver, kidney, spleen","[10]; po, 2 mg/kg",no morphological and histological changes (toxicity)
same,"morphological and histological changes in liver, kidney, spleen","[10]; sc, 1 mg/kg",no morphological and histological changes (toxicity)
same,activity at 0.1 µM,[3]; 0.1 uM,13.4 ± 2.5%
same,activity at 1 µM,[3]; 1 uM,15.2 ± 1.6%
same,activity at 10 µM,[3]; 10 uM,16.4 ± 2.3%
same,IC50,[3],3.14 nM
same,potency as inhibitor of AR/AR-V7 transcriptional activity compared with ailanthone,[3],more potent inhibitors against AR/AR-V7 transcriptional activity
"COC(=O)[C@@]12OC[C@]34[C@H]([C@@H](O)[C@@H]1O)[C@@]1(C)CC(=O)C(O)=C(C)[C@@H]1C[C@H]3OC(=O)[C@H](OC(=O)C=C(C)C)[C@@H]24 [Brusatol, brusatol]",IC50,"22RV1 cells; 22RV1 cells, MTT, 72 hours",15.1 nM
same,activity at 0.1 µM,[1]; 0.1 uM,5.7 ± 0.6%
same,activity at 1 µM,[1]; 1 uM,4 ± 0.5%
same,activity at 10 µM,[1]; 10 uM,3.2 ± 0.2%
same,IC50,[1],6.23 nM
same,IC50,[2]; LNCaP cells,11.7 nM
same,activity at 0.1 µM,[3]; 0.1 uM,18.9 ± 20.2%
same,activity at 1 µM,[3]; 1 uM,14 ± 1.3%
same,activity at 10 µM,[3]; 10 uM,10.3 ± 2.7%
same,IC50,[3],14 nM
same,potency as inhibitor of AR/AR-V7 transcriptional activity compared with ailanthone,[3],more potent inhibitors against AR/AR-V7 transcriptional activity
COC(=O)[C@]12OC[C@]34[C@H]([C@@H](O)[C@@H]1O)[C@@]1(C)C=C(O[C@@H]5O[C@H](CO)[C@@H](O)[C@H](O)[C@H]5O)C(=O)[C@@H](C)[C@@H]1C[C@H]3OC(=O)[C@H](OC(=O)/C=C(\C)C(C)C)[C@@H]24 [Bruceantinoside A],MMTV-LUC activity (%) DHT+,[1]; 0.1 uM,61.0 ± 7.3%
same,MMTV-LUC activity (%) DHT+,[1]; 1 uM,8.0 ± 0.2%
same,MMTV-LUC activity (%) DHT+,[1]; 10 uM,3.8 ± 1.1%
same,MMTV-LUC activity (%) DHT−,[3]; 0.1 uM,44.9 ± 5.5%
same,MMTV-LUC activity (%) DHT−,[3]; 1 uM,11.5 ± 5.6%
same,MMTV-LUC activity (%) DHT−,[3]; 10 uM,6.5 ± 0.9%
